Experiments:
mice fed with HFD = experiment: HFD-fed mice, 8 weeks, gavage: serum/liver lipids, body weight, food intake; format: in vivo; conditions: HFD mice, 8 weeks
Protocol: (§1) In the 8 week experiment, C57BL/6J male mice (21-22 g), after fasting, were fed a HFD as a model of hyperlipidemia for 8 weeks. During the 2 month experiments, mice fasted for one night before the experiment was changed from a standard diet (STD) to a HFD and then the mice were randomly divided into 5 groups, including 2 control and 3 treatment groups. Six mice were used in each group. […] Liver from the protection group supplemented with KMUP-1 HCl (1 mg/kg/day) were used to determine the HMG CoA reductase expression.
Within 2 months, the 3 day food intake average for each animal was measured. The weight gain and plasma lipid levels of each group were determined and compared to the non-treatment control group. Mouse blood was collected during the daytime by cardiac puncture followed by centrifugation at 90 g (Benchtop Centrifuge, U.S.A.) to separate the serum, and frozen at −80° C., for biochemical analysis using a Hitachi Clinical Analyzer 7070 (Hitachi High-Technologies Co. Tokyo, Japan). Agents used in the assays were Obtained from Merck & Co. (Kenilworth, N.J., U.S.A.). Triglyceride (TG), total cholesterol, HDL cholesterol and LDL cholesterol in mouse serum were measured by methods used in the clinic. To measure the hepatic TG, isolated liver were cut into small chips.

LDLR = experiment: Fluorescence staining of LDLRs in HepG2 cells; format: cell-based
Protocol: HepG2 cells were used to determine the cellular protein expression of LDLRs in the presence of exogenous LDL (500 μg/mL) Bodipy-493/503 ([…]) overnight at 4° C., followed by merger of obtained BODIPY- and LDL-images to analyze the location of LDLRs. All images were collected and analyzed by scanning with Nikon Eclipse TE200-S microscope (Tokyo, Japan).

ATGL = experiment: IHC staining of ATGL in steatohepatitis liver; format: in vivo, mice; conditions: more prominent in protection than treatment groups
Protocol: (§2) In the 14-week experiment, mice were fed a HFD from week 1 to week 14. During the 3 month experiments, KMUP-1 HCl (2.5 mg) was added to 200 ml tap water and) and drink for 14 weeks or for the last 6 weeks on mice or obese mice fed HFD, separately. 5 mice had free access to drinking water from week 1 to week 14 (protective group) or from week 8 to week 14 (treatment group). Tap water was used to normalize mineral nutrition (Scheme A).
For IHC of MMP-9/TNFα, HSL/p-HSL/ATGL and eNOS/IL-10, antigen retrieval of de-paraffinated sections was performed in Dako target retrieval solution, pH 9.0, in a vegetable steamer followed by the quenching of endogenous peroxidase activity with 3.0% H2O2 in methanol. Sections were then incubated with specific primary antibodies overnight at 4° C. in a humidified chamber. The antibodies used included rabbit polyclonal anti-eNOS (1:50 dilution) (Abcam, Cambridge, UK) or rabbit monoclonal anti-cleaved caspase-3 (1:50 dilution) (Cell Signaling, USA). The sections were then examined using a DAKO REAL EnVision™ Detection System kit (DAKO, Carpinteria, Calif.) and counterstained with hematoxylin. Images were obtained through a Nikon Eclipse TE200-S microscope.

ROCK II = ROCK II expression in HepG2 cells; format: cell-based
Protocol: HepG2 cells were treated with various concentrations of drugs for 24 hours. Reactions were terminated by washing twice with cold PBS, and the cells were then harvested, Proteins in the whole-cell lysate were homogenized in an ice-cold lysis buffer and a protease inhibitor (Sigma-Aldrich, St. Louis, Mo., U.S.A.). The homogenate was centrifuged at 90, 000 g for 15 minutes at 4° C., and supernatant was recovered as the total cellular protein. Cytosolic and membrane fractions of HepG2 cells were prepared using a. CNM (Cytosol Nuclear Membrane) compartment protein extraction kit (BioChain Institute Inc., Hayward, Calif., U.S.A.) according to the manufacturer's instructions. All of the fractionated protein solutions were stored at -80° C. until analysis. To measure the expression levels of proteins by drugs, the total cell protein was extracted after incubation with treatments for 24 hours and then Western blotting analysis was performed as described previously.

PPAR-γ = experiment: Table 3 PPAR-γ (% of control); format: cell-based; conditions: control group = 100 (%)
PPARγ = PPARγ expression in liver of HFD mice (8 weeks); format: in vivo; conditions: animals treated with HFD
Protocol: as §1
For the expression of SR-B1, HMGR, PPARγ and ROCK isolated liver tissues were cut into small chips and placed into an extraction buffer (Tris 10 mM, pH 7.0, NaCl 140 mM, PMSF 2 mM, DTT 5 mM, NP-40 0.5%, pepstatin A 0.05 mM and leupeptin 0.2 mM) for hepatic protein extraction, and centrifuged at 20,000 g for 30 minutes. The obtained protein extract was boiled to a ratio of 4:1 with a sample buffer (Tris 100 mM, pH 6.8, glycerol 20%, SDS 4% and bromophenol blue 0.2%). Electrophoresis was performed using 10% SDS-polyacrylamide gel (1 hour, 100 V, 40 mA, 20 μg protein per lane).
Separated proteins, after 3 repeated centrifugations to discard up-layer tissue lipid inpurity, were transferred to PVDF membranes treated with 5% fat-free milk powder to block the nonspecific IgGs (90 minutes, 100 V) and incubated for 1 hour with specific protein antibody. […]

epididymal fat pads = experiment: H&E staining, weight and cell diameter of epididymal fat pads; format: in vivo, mice
Protocol: as §2
Mice liver and epididymal fat pads were cut and soaked in formalin, dehydrated through graded alcohols and embedded in paraffin. Specimens of liver tissues and epididymal fat pads fixed with formalin (4%) were embedded in paraffin for one hour at 4° C., cut into […] sections, and subjected to H&E staining before examination by light microscope. In heart tissues, the 4-μm-thick paraffin sections were cut from paraffin-embedded tissue blocks and de-paraffinized by immersion in xylene and rehydrated. The slices were then dyed with H&E. After gently rinsing with water, each slide was dehydrated through graded alcohols and finally soaked in xylene twice.

PKA = experiment: Hepatic PKA expression (14-week experiment); format: in vivo, mice; conditions: drinking KMUP-1; protection and treatment groups

Cn1c(=O)c2c(ncn2CCN2CCN(c3ccccc3Cl)CC2)n(C)c1=O [KMUP-1, 7-[2-[4-(2-chlorophenyl)piperazinyl]ethyl]-1,3-dimethyl xanthine]
HDL cholesterol level (mice fed with HFD): significantly increased
HFD-induced hypercholesterolemia (mice fed with HFD): significantly improved
HDL cholesterol (mice fed with HFD; 2.5 mg/kg): 103.6 ± 4.2 mg/dL
LDL cholesterol (mice fed with HFD; 2.5 mg/kg): 14.2 ± 1.4 mg/dL
TG in serum (mice fed with HFD; 2.5 mg/kg): 74.5 ± 5.1 mg/dL
TG of liver (mice fed with HFD; 2.5 mg/kg): 28.4 ± 3.6 mg/dL
Tot. chol. (total cholesterol) (mice fed with HFD; 2.5 mg/kg): 133.0 ± 5.1 mg/dL
final BW (Body weight) (mice fed with HFD; 2.5 mg/kg): 25.7 ± 0.7 g
HDL cholesterol (mice fed with HFD; 5 mg/kg): 118.3 ± 5.7 mg/dL
LDL cholesterol (mice fed with HFD; 5 mg/kg): 14.2 ± 2.2 mg/dL
TG in serum (mice fed with HFD; 5 mg/kg): 72.7 ± 4.7 mg/dL
TG of liver (mice fed with HFD; 5 mg/kg): 26.12 ± 3.1 mg/dL
Tot. chol. (total cholesterol) (mice fed with HFD; 5 mg/kg): 125.5 ± 9.8 mg/dL
final BW (Body weight) (mice fed with HFD; 5 mg/kg): 24.3 ± 0.5 g
LDLR (green fluorescence) expression (LDLR; HepG2, 24 hours, KMUP-1 10^−6, 10^−5, 10^−4 M, simvastatin 10^−5 M): increased
LDLR fluorescence at high concentration (LDLR; HepG2, concentrations >10^−4 M, near the viability range): decline in fluoresence
ATGL lipolysis (IHC, liver) (ATGL): induced
ROCK II protein expression (ROCK II; HepG2, 10^−9-10^−5 M): concentration-dependently reduced
Rp-8-pCPT-cGMPS-increased ROCK II expression (ROCK II; HepG2, combination with KMUP-1 10 μM): inhibited
GGPP- and FPP-increased RhoA/ROCK II expression (ROCK II; HepG2, in the presence of exogenous GGPP and FPP, 10^−9-10^−5M): attenuated
PPAR-γ (PPAR-γ; 0.1 μM): 123.5 ± 17.3%
PPAR-γ (PPAR-γ; 1.0 μM): 135.6 ± 14.5%
PPAR-γ (PPAR-γ; 10 μM): 142.6 ± 15.4%
PPARγ in liver (PPARγ): activated
epididymal fat pad weight (epididymal fat pads; 2.5 mg/kg/day for 14 weeks): significantly reduced
fat cell diameter (epididymal fat pads; 2.5 mg/kg/day for 14 weeks): significantly reduced
HFD-induced hypertrophy/hyperplasia of epididymal fat pads (H&E) (epididymal fat pads; protection, 2.5 mg/kg): inhibited
hepatic PKA expression (PKA): promote
